The values that follow come from patent US10828272B2, “Means to facilitate food intake and food retention” (Chardon Group B.V., priority 2012, dated 2020).

Structures are written as SMILES. Counter-ions that a name gives are not always drawn.

The experiment relates to Wistar rats. In words: Food intake test (30 min, living mealworms) in non-deprived rats. The format is in vivo, rat. Conditions: for Dose needed for effect on food intake in this procedure (conclusion): into esophagus. The source says:
In the following examples food intake tests were run with cohorts of 32 Wistar rats having food intake sessions in two groups of 16 rats in parallel. There were 8 rats per experimental group. The rats weighed in the range of 260-370 grams. Rats were acclimatized to the housing conditions in our laboratory for at least one week after arrival from the breeder. The rats were housed in pairs in Macrolon cages of 42×26 cm and 15 cm high, with standard food and water available ad libitum. The day-night cycle was not reversed (lights on at 7:00 AM, off 19:00 PM). Food intake tests were run in the same room wherein the rats were housed in the light period of the diurnal cycle of the rats. In a further period the rats were habituated to human handling and to the manner of presentation of mealworms in the food intake tests. Food intake was measured with rats without food deprivation. Food intake tests were done by placing the rats from their home cage individually into clean Macrolon (42×26×15 cm) cages without bedding. A weighed amount of at least 15-20 g living mealworms in a petri dish was placed in the middle of the cage and rats were allowed 30 minutes for eating mealworms. During the 30 minute test for food intake no drinking water was available. Injection treatments were administered at determined times before the food intake test. After drug administration the rats were returned to their home cage. Both rats of a pair in a living cage were assigned to the same treatment groups. Otherwise allocation of rats to experimental groups was done such that the treatments were equally and randomly spread over the duration of an experiment. The experimenter remained in the test room for the duration of an experiment. This allowed observation of general behavioural effects of the treatments. Abnormalities were recorded.
For drug administration commercially available stock solutions in vials were used: • lidocainehydrochloride 20 mg/ml injection fluid (Fresenius Kabi); procainamidehydrochloride 100 mg/ml injection fluid (Apotheek Haagse Ziekenhuizen); • ropivacainehydrochloride 7.5 mg/ml injection fluid (Fresenius Kabi); • metoclopramine (Sigma) was weighed and dissolved for use.
Drugs were administered in volumes of 1 ml/kg rat.
Vehicle: for local anesthetics the commercial physiological saline solutions for injection were used directly or the solution was diluted with distilled water. Alginate for a 2% viscous alginate solution was added 18 hours before use of the solution for injection. The solution was prepared to a viscous solution by allowing 18 hours of slow mechanical mixing.
For administration of the drug into the lumen of the esophagus the injection fluid was administered by entering a thick needle with rounded tip via, and into the esophagus just above the lower esophageal sphincter and retreating during injection to release the volume to be injected just behind the pharynx.
For administration into the stomach a similar 1 mm thick needle with a 2 mm tip and 60 mm length was introduced into the stomach via the esophagus as customary for oral administration in rats.
For administration subcutaneously (sc) the injection fluid was injected with a sharp thin needle under the skin in the neck.

Take `CCN(CC)CC(=O)Nc1c(C)cccc1C` [Lidocaine•HCl, lidocainehydrochloride]: the “Grams of mealworms eaten (AVG)” value is listed as 14.85 grams (Example 1, 1 mg/kg into esophagus, 30 minutes before test); 14.46 grams (Example 1, 3 mg/kg into esophagus, 30 minutes before test); 14.54 grams (Example 1, 10 mg/kg into esophagus, 30 minutes before test); 16.91 grams (Example 2, 20 mg/kg esophagus, 15 minutes before test); 17.14 grams (Example 2, 20 mg/kg esophagus, 30 minutes before test); 16.28 grams (Example 2, 20 mg/kg stomach, 30 minutes before test). The “Effect on food intake, esophagus compared with stomach (conclusion)” value (Example 2, 20 mg/kg, application in the esophagus versus into the stomach) is “more effective”. The “Effect on food intake (conclusion)” value (Example 2, dose of 20 mg/kg) is “effective”. For the same compound, for the setting “30 minutes before test”, the “Dose needed for effect on food intake in this procedure (conclusion)” value (from here on “Dose needed for effect on food intake”) was “above 10 mg/kg”.

In the case of `CCN(CC)CCNC(=O)c1ccc(N)cc1` [Procainamide, procainamidehydrochloride], the “Grams of mealworms eaten (AVG)” value reads like this: (Example 3, 20 m/kg esophagus, 30 minutes before test) 12.11 grams; (Example 4, 100 m/kg esophagus, 30 minutes before test) 10.55 grams. Under “30 minutes before test”, the “Dose needed for effect on food intake” value is reported as “higher than 20 mg/kg”.

Consider `CCCN1CCCC[C@H]1C(=O)Nc1c(C)cccc1C.Cl` [Ropivacaine, ropivacainehydrochloride], for which the “Grams of mealworms eaten (AVG)” value reads like this: (Example 3, 1.25 mg/kg esophagus, 30 minutes before test) 13.40 grams; (Example 4, 3.75 mg/kg esophagus, 30 minutes before test) 12.08 grams; (Example 4, 7.5 mg/kg esophagus, 30 minutes before test) 13.58 grams; (Example 5, 7.5 mg/kg esophagus) 13.24 grams; (Example 5, 7.5 mg/kg stomach) 10.72 grams; (Example 5, 11.25 mg/kg esophagus) 14.44 grams. Besides, the “Effect on food intake (conclusion)” value (Example 4, 7.5 mg/kg in the esophagus) is reported as “enhanced food intake”. Besides, the “Effect on meal size (conclusion)” value (Example 5, 7.5 mg/kg and 11.25 mg/kg in the esophagus) is listed as “effective in increasing meal size”. Further, where the note is “30 minutes before test”, the “Dose needed for effect on food intake” value is “higher than 1.25 mg/kg”.

On to `CCN(CC)CCNC(=O)c1cc(Cl)c(N)cc1OC` [metoclopramide], for which the “Grams of mealworms eaten (AVG)” value (Example 6, 3 mg/kg sc, 30 minutes before test) is 11.86 grams; the “Grams of mealworms eaten (AVG)” value (Example 6, 10 mg/kg sc, 30 minutes before test) worked out at 1.25 grams; the “Grams of mealworms eaten (AVG)” value (Example 6, 30 mg/kg sc, 30 minutes before test) is listed as 0.22 grams; the “Grams of mealworms eaten (AVG)” value (Example 7, 0.1 mg/kg sc, 30 minutes before test) is 13.51 grams; the “Grams of mealworms eaten (AVG)” value (Example 7, 0.3 mg/kg sc, 30 minutes before test) amounted to 12.23 grams; the “Grams of mealworms eaten (AVG)” value (Example 7, 1 mg/kg sc, 30 minutes before test) worked out at 15.76 grams. Besides, the “Effect on food intake (conclusion)” value (Example 6, subcutaneously at doses above 3 mg/kg) is on record as “inhibits food intake”; the “Effect on food intake (conclusion)” value (Example 7, 0.1 and 0.3 mg/kg subcutaneously) is recorded as “ineffective”; the “Effect on food intake (conclusion)” value (Example 7, subcutaneous injection of 1 mg/kg) is on record as “increases food intake”.
